These results are taken from patent publication US20220331301A1, “CYSTIC FIBROSIS TRANSMEMBRANE CONDUCTANCE REGULATOR MODULATORS FOR TREATING AUTOSOMAL RESESSIVE POLYCYSTIC KIDNEY DISEASE” (The Johns Hopkins University, priority 2021, published 2022).

Assay [1] concerns Pkhd1^del4/del4 cholangiocytes. Kind of assay: Cyst growth of cholangiocytes on matrigel (3D culture). It is filed as cell-based, mice. To be noted: for cyst growth / cyst area: 10 μM continuous, cysts induced with Forskolin (10 μM). Here is the method: Note that the cysts treated with forskolin (for) grew larger. […] Note that the cysts treated with forskolin (for) grew larger. […] FIG. 3C for 1 wk. […] Cysts were induced with Forskolin (10 μM) for 24 hours prior to study. Columns represent means±standard error (SEM). **P<0.01 ****P<0.0001 (for all graphs). Statistical analysis was performed using an unpaired two-tailed Student's t-test;
Note that the cysts treated with forskolin (for) grew larger. […] Note that the cysts treated with forskolin (for) grew larger. […] FIG. 4C for 1 wk. […] Cysts were induced with Forskolin (10 μM) for 24 hours prior to study. Columns represent means±standard error (SEM). **P<0.01 ****P<0.0001 (for all graphs). Statistical analysis was performed using an unpaired two-tailed Student's t-test;
But cysts do develop from the Pkhd1del4/del4 cholangiocytes. Cyst growth is accelerated by forskolin (for). […] Yanda et al., 2018. The dosage of VX-809 injected was lower than the human pediatric dose, which is 500 mg of Lumacaftor per day; the adult dose is 800 mg/day.
(Methods and cells provided by the Yale O'Brian Center) To create the cholangiocyte cultures PKhd1del/4/del4, Garcia-Gonzalez et al., 2007, animals were crossed with mice transgenic for the Sv40 large T Antigen (strain name SV40 T-antigen JAX strain #002233). Segments of intrahepatic bile ducts were microdissected from livers perfused via the portal vein with molten agarose containing toluidine blue to mark the veins. The liver parenchyma was stripped until the biliary tree was identified and the bile duct units were seeded onto rat type I collagen coated plates. Cells were cultured under non-permissive conditions in the following medium: DMEM/F12 with 5% fetal bovine serum, 10 μL/mL insulin-transferrin selenium, 3.4 μg/mL triiodothyronine, 50,000 U penicillin/streptomycin under humidified conditions at 37° C. in 5% CO2. After one week, the cells were cultured under permissive conditions in the presence of 10 U of interferon-γ at 33° C. in 5% CO2. When confluent, cells were passaged by digesting the collagen slab below the cells (60 min; 37° C.; DMEM/F12 with 2 mg/mL dispase and 1 mg/mL collagenase type 11), then washed twice in PBS and plated onto collagen coated support systems. Clonal cell lines were generated by single cell isolation. Cells were differentiated for 10 days at 37° C. without interferon-γ for experimental use.

Assay [2] concerns Pkhd1^del4/del4 cholangiocytes. Kind of assay: Cyclic AMP assay in cholangiocytes. The assay is classed as cell-based, mice. Particulars: for cAMP levels: VX-809 (10 μM) 16 h. The protocol:
The experiment was repeated four times. For all graphs, P<0.05, ***P<0.001 and ****P<0.0001;
Confluent cells were treated with VX-809 (10 μM) or DMSO for 16 h before being harvested for assay. Cyclic AMP levels were measured with a direct cAMP Enzyme Immunoassay Kit (Sigma, #CA200) according to the manufacturer's protocol. The results are expressed as pmole/mL.
In general terms: cAMP levels reflect the balance of adenylyl cyclase and phosphodiesterase activity.

The test system of assay [3] is Pkhd1^del4/del4 cholangiocytes. Kind of assay: Fura-2 Ca2+ imaging, thapsigargin-induced ER Ca2+ release in cholangiocytes. The assay is classed as cell-based, mice. Particulars: VX-809 (10 μM) for 16 h; thapsigargin (4 μM). The protocol:
FIG. 6A, FIG. 6B, and FIG. 6C show intracellular Ca2+ (F340/F380) levels obtained by ratiometric Fura-2 AM analysis of WT and Pkhd1^del4/del4 cholangiocytes, the latter treated with VX-809 (10 μM) for 16 h. (FIG. 6A) Representative traces of ER Ca2+ release in response to thapsigargin (4 μM) in WT and Pkhd1^del4/del4 cholangiocytes the latter treated with VX-809. Resting calcium levels (FIG. 6B and the average amplitude of Ca2+ release (FIG. 6C) in response to thapsigargin;
The ER is one of the major repositories for Ca2+ in the cell. Burgoyne et al., 2015. Misregulation of Ca2+ signaling is a hallmark of ADPKD. Yanda et al., 2019b. To understand whether the ER Ca2+ movement is altered, we measured ER Ca2+ release; we treated the cells with thapsigargin, a specific inhibitor of the ER Ca2+-ATPase that, when applied, allows Ca2+ to leak out of the ER through independent Ca2+-permeable pathways. Jackson et al., 1988; Thastrup et al., 1990; Thastrup et al., 1989.
The cells were loaded with the cell-permeant acetoxymethyl (AM) ester of the calcium indicator fura-2 (fura-2/AM) at 37° C. for 90 min. […] A Zeiss FluorArc mercury lamp was used to excite the cells at 340 and 380 nm, and the emission response was measured at 510 nm. Cell fluorescence was measured in response to excitation for 1000 ms at 340 nm and 200 ms at 380 nm once every 4 s. […]

Assay [4] concerns renal cell models of ADPKD. Particulars: shown previously, Yanda et al., 2018; cited from earlier work.
A further assay deals with PC1 null mice. To be noted: shown previously, Yanda et al., 2018; cited from earlier work.

“Also recorded” adds a separate entry of the source.

In the case of lumacaftor [VX-809], the “cyst growth in 3D culture” value in assay [1] (Pkhd1del4/del4 cholangiocytes, time not stated) is listed as “reduces growth; also recorded: can reduce cyst growth even in the presence of forskolin”. For the same substance, the “cyst growth / cyst area” value in assay [1] (monitored for 1 week) and in assay [1] (monitored for 72 hrs) was “reduced cyst growth in the presence of forskolin” each time. In assay [2] (Pkhd1del4/del4 cholangiocytes), the “cAMP reduction compared with inhibitor 172” value is listed as “reduces cAMP more effectively than the inhibitor 172”. Further, the cAMP levels entry in assay [2] (absence of forskolin) and in assay [2] (presence of forskolin (100 μM) for 30 min) was “reduces cAMP levels; also recorded: reduced the levels of cAMP” each time. In assay [3], the “thapsigargin-induced ER Ca2+ release” value is “dramatically reduced”. The “cysts in renal cell models of ADPKD” value in assay [4] is “can reduce cysts”. In addition, the “cysts in PC1 null mice” value in the assay on PC1 null mice is reported as “can reduce cysts”.
